From patent US7576094B2, “Spiro derivatives as lipoxygenase inhibitors” (Eli Lilly and Company, priority 2004, dated 2009)

Assays:
[1] = tested on: release of the leukotriene LTB4 from a neutrophil cell line (MPRO cell line); assay: LTB4-Cell Assay; assay type: cell-based; conditions: Mus musculus, 1 h, read-out: inhibition of LTB4 with an EC50
How it was run: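 Mouse promyelocytic cells differentiated to neutrophils with 10 μM all-trans retinoic acid for 72 h, then stimulated with 1 μM A23187 plus compound for 1 h at 37° C. Supernatant LTB4 quantified by competitive EIA; 5 concentrations in quadruplicate from 10 μM top.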

[2] = target: T1, porcine leukocyte 12/15-Lipoxygenase (Sus scrofa, UniProt P16469); assay: 12/15-Lipoxygenase Enzyme Assay; assay type: biochemical; conditions: 70 μM arachidonic acid, 10 minute incubation at room temperature, FOX reagent, absorbance at 620 nm; read-out: inhibition of 12/15-Lipoxygenase with an IC50
T1 sequence (P16469 1-663): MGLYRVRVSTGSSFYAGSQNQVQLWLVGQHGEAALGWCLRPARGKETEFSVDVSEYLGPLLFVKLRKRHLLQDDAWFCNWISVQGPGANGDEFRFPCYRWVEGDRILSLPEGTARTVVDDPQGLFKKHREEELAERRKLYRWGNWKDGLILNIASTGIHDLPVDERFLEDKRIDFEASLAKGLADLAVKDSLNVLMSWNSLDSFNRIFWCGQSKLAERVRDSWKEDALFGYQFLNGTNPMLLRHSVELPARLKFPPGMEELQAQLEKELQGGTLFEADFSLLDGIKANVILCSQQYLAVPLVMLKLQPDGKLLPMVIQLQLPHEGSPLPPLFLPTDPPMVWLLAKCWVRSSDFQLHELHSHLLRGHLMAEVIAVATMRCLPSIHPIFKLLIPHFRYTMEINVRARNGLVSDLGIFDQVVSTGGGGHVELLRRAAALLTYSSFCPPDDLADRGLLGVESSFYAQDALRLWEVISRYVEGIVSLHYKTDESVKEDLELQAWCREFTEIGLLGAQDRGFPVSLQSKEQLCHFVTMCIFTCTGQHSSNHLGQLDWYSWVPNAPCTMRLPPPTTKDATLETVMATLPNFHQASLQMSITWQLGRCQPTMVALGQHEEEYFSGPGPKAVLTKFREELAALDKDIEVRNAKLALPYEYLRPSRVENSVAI

Row | Compound | EC50 [1] | IC50 [2]
1 | Cc1c(C)c2c(c(C)c1O)C1(CCC1)CC(C)(C)S2 [2′,2′,5′,7′,8′-pentamethyl-2′,3′-dihydrospiro[cyclobutane-1,4′-thiochromen]-6′-ol] | < 5 µM | < 5 µM
2 | COC(C)C1=Cc2c(C)c(O)c(C)c(C)c2OC12CCC2 (centres unmarked) [3-(1-methoxyethyl)-5,7,8-trimethylspiro[chromene-2,1′-cyclobutan]-6-ol] | < 5 µM | < 5 µM
3 | CCONCC1=Cc2c(cc(C)c(O)c2C)OC12CCC2 [3-[(ethoxyamino)methyl]-5,7-dimethylspiro[chromene-2,1′-cyclobutan]-6-ol] | < 5 µM | < 5 µM
4 | CCONC1CC2(CCC2)Sc2c(C)c(C)c(O)c(C)c21 (centres unmarked) [4′-(ethoxyamino)-5′,7′,8′-trimethyl-3′,4′-dihydrospiro[cyclobutane-1,2′-thiochromen]-6′-ol] | < 5 µM | < 5 µM
5 | CCONC1CC2(CCC2)Sc2cc(C)c(O)c(C)c21 (centres unmarked) [4′-(ethoxyamino)-5′,7′-dimethyl-3′,4′-dihydrospiro[cyclobutane-1,2′-thiochromen]-6′-ol] | < 5 µM | < 5 µM
6 | CONC1CC2(CCC2)Sc2c(C)c(C)c(O)c(C)c21 (centres unmarked) [4′-(methoxyamino)-5′,7′,8′-trimethyl-3′,4′-dihydrospiro[cyclobutane-1,2′-thiochromen]-6′-ol] | < 5 µM | < 5 µM
7 | CONC1CC2(CCC2)Sc2cc(C)c(O)c(C)c21 (centres unmarked) [4′-(methoxyamino)-5′,7′-dimethyl-3′,4′-dihydrospiro[cyclobutane-1,2′-thiochromen]-6′-ol] | < 5 µM | < 5 µM
8 | Cc1c(C)c2c(c(C)c1O)CCC1(CC1)O2 [5,7,8-trimethyl-3,4-dihydrospiro[chromene-2,1′-cyclopropan]-6-ol] | < 5 µM | < 5 µM
9 | Cc1cc2c(c(C)c1O)CCC1(CCC1)O2 [5,7-dimethyl-3,4-dihydrospiro[chromene-2,1′-cyclobutan]-6-ol] | < 5 µM | < 5 µM
10 | Cc1cc2c(c(C)c1O)CC1(CCC1)CO2 [5,7-dimethylspiro[chroman-3,1′-cyclobutan]-6-ol] | < 5 µM | < 5 µM
11 | Cc1cc2c(c(C)c1O)C=CC1(CCC1)O2 [5,7-dimethylspiro[chromene-2,1′-cyclobutan]-6-ol] | < 5 µM | < 5 µM
12 | Cc1c(C)c2c(c(Cl)c1O)CCC1(CCC1)O2 [5-chloro-7,8-dimethyl-3,4-dihydrospiro[chromene-2,1′-cyclobutan]-6-ol] | < 5 µM | < 5 µM
13 | Cc1c(C)c2c(c(C)c1O)C1(CCC1)CCS2 [5′,7′,8′-trimethyl-2′,3′-dihydrospiro[cyclobutane, 1,4′-thiochromen]-6′-ol] | < 5 µM | < 5 µM
14 | CCO/N=C/C1=Cc2c(cc(C)c(O)c2C)OC12CCC2 [6-hydroxy-5,7-dimethylspiro[chromene-2,1′-cyclobutane]-3-carbaldehyde O-ethyloxime] | < 5 µM | < 5 µM
15 | CO/N=C1\CC2(CCC2)Sc2c(C)c(C)c(O)c(C)c21 [6′-hydroxy-5′,7′,8′-trimethylspiro[cyclobutane-1,2′-thiochroman]-4′(3′H)-one O-methyloxime] | < 5 µM | < 5 µM
16 | Cc1c(O)cc2c(c1C)OC1(CCC1)CC2 [7,8-dimethyl-3,4-dihydrospiro[chromene-2,1′-cyclobutan]-6-ol] | < 5 µM | < 5 µM
17 | CC(C)(C)c1cc2c(cc1O)CCC1(CCC1)O2 [7-tert-butyl-3,4-dihydrospiro[chromene-2,1′-cyclobutan]-6-ol] | < 5 µM | < 5 µM
18 | Cc1c(O)c(C(C)(C)C)cc2c1CCC1(CCC1)O2 [7-tert-butyl-5-methyl-3,4-dihydrospiro[chromene-2,1′-cyclobutan]-6-ol] | < 5 µM | < 5 µM
19 | CCc1cc2c(c(CC)c1O)CC(CSCC(=O)OC)C1(CCC1)O2 (centres unmarked) [methyl 2-((5,7-diethyl-6-hydroxyspiro[chroman-2,1′-cyclobutane]-3-yl)methylthio)acetate] | < 5 µM | < 5 µM
